Reference: ChEMBL document CHEMBL1138685, “Molecular recognition in purinergic receptors. 2. Diastereoselectivity of the h-P2Y1-receptor” (J Med Chem, 2004)

molecular target: P2Y purinoceptor 1 (Homo sapiens) (UniProt P47900); assay: Concenthumanion required for calcium mobilization at human purinergic 2Y1 receptor expressed in HEK 293 cells
Sequence (P47900 whole entry, looked up): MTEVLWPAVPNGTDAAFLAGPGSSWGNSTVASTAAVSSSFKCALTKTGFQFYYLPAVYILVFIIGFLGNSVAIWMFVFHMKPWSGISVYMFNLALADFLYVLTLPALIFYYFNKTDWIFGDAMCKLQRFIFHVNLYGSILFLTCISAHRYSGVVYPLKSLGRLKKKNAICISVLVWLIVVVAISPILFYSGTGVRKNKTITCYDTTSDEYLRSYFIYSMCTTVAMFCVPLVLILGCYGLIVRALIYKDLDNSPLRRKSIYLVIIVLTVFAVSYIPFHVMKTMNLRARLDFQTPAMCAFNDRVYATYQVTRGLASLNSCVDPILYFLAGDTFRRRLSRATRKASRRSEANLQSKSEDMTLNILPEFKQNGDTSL

Structure (SMILES)	EC50 [nM]
Nc1ncnc2c1ncn2C1O[C@H](CO[P@@](O)(=S)OP(=O)(O)OP(=O)(O)O)[C@@H](O)[C@H]1O (stereo partly specified)	75
CSc1nc(N)c2ncn(C3O[C@H](CO[P@@](O)(=S)OP(=O)(O)OP(=O)(O)O)[C@@H](O)[C@H]3O)c2n1 (stereo partly specified)	20
Nc1ncnc2c1ncn2C1O[C@H](CO[P@](O)(=S)OP(=O)(O)OP(=O)(O)O)[C@@H](O)[C@H]1O (stereo partly specified)	9.4
CSc1nc(N)c2ncn(C3O[C@H](CO[P@](O)(=S)OP(=O)(O)OP(=O)(O)O)[C@@H](O)[C@H]3O)c2n1 (stereo partly specified)	1
BP(=O)(OC[C@H]1O[C@@H](n2cnc3c(N)nc(SC)nc32)[C@H](O)[C@@H]1O)OP(=O)(O)OP(=O)(O)O (stereo partly specified)	53
CSc1nc(N)c2ncn([C@@H]3O[C@H](COP(=O)(O)OP(=O)(O)OP(=O)(O)O)[C@@H](O)[C@H]3O)c2n1	1
